According to ChEMBL document CHEMBL3286253, “Design, synthesis, and structure-activity relationship studies of novel thioether pleuromutilin derivatives as potent antibacterial agents” (J Med Chem, 2014):
Values after ≈ are worked out from the molar mass of the structure shown.

Experiments:
[1] = test system: Staphylococcus aureus; assay: Antibacterial activity against Staphylococcus aureus […] after 16 hrs by agar dilution method; type: functional
[2] = test system: Staphylococcus aureus; assay: Antibacterial activity against methicillin-sensitive Staphylococcus aureus after 16 hrs by agar dilution method; type: functional
[3] = test system: Staphylococcus aureus; assay: Antibacterial activity against methicillin-resistant Staphylococcus aureus after 16 hrs by agar dilution method; type: functional
[4] = test system: Staphylococcus epidermidis; assay: Antibacterial activity against methicillin-sensitive Staphylococcus epidermidis after 16 hrs by agar dilution method; type: functional
[5] = test system: Streptococcus pneumoniae; assay: Antibacterial activity against penicillin-resistant Streptococcus pneumoniae after 16 hrs by agar dilution method; type: functional
[6] = biological target: T1, Cytochrome P450 1A2 (Homo sapiens, UniProt P05177); assay: Inhibition of CYP1A2 in human liver microsomes using phenacetin as substrate after 15 mins by LC/MS/MS analysis
T1 sequence (P05177 whole entry): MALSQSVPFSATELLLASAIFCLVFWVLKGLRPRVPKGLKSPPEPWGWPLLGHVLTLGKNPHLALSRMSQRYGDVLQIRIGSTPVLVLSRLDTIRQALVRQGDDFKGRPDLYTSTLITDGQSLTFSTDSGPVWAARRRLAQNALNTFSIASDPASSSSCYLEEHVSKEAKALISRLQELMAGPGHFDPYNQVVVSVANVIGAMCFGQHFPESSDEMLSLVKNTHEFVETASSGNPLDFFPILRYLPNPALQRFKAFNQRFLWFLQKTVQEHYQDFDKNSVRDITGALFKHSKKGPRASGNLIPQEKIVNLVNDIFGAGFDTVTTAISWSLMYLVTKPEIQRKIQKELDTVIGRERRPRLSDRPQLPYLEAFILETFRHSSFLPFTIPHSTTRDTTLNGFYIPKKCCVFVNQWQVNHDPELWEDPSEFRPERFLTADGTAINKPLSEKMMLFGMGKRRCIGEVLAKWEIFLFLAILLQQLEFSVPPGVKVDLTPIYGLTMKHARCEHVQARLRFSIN

[7] = biological target: Cytochrome P450 2C9 (Homo sapiens, UniProt P11712); assay: Inhibition of CYP2C9 in human liver microsomes using tolbutamide as substrate after 15 mins by LC/MS/MS analysis
Chain of Cytochrome P450 2C9 (P11712 whole entry): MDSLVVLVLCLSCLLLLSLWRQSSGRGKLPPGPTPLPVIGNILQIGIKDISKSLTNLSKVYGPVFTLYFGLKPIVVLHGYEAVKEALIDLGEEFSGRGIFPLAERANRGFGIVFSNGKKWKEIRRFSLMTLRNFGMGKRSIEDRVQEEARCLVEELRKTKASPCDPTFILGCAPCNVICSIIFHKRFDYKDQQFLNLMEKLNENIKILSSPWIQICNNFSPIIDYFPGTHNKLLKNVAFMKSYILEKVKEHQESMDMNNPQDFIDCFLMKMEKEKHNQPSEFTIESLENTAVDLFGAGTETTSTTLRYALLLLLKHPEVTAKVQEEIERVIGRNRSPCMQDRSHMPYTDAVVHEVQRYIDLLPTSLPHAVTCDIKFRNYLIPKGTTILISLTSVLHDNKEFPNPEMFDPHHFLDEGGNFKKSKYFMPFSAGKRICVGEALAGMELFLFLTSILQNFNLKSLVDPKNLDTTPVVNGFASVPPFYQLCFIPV

[8] = biological target: Cytochrome P450 2C19 (Homo sapiens, UniProt P33261); assay: Inhibition of CYP2C19 in human liver microsomes using mephenytoin as substrate after 15 mins by LC/MS/MS analysis
Chain of Cytochrome P450 2C19 (P33261 whole entry): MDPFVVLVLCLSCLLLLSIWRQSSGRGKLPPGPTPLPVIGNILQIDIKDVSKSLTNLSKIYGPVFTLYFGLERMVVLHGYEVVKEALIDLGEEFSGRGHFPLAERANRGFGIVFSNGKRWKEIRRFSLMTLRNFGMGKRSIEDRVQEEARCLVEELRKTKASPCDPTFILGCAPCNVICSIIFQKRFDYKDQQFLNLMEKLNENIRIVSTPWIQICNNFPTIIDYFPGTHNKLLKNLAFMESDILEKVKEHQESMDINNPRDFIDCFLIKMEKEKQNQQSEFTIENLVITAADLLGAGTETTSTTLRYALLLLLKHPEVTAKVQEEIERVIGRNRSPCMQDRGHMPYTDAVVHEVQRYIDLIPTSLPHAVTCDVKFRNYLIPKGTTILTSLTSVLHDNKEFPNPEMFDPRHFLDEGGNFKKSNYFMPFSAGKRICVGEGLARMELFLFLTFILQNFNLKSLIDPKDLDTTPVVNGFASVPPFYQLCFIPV

[9] = biological target: Cytochrome P450 2D6 (Homo sapiens, UniProt P10635); assay: Inhibition of CYP2D6 in human liver microsomes using dextromethorphan as substrate after 15 mins by LC/MS/MS analysis
Chain of Cytochrome P450 2D6 (P10635 whole entry): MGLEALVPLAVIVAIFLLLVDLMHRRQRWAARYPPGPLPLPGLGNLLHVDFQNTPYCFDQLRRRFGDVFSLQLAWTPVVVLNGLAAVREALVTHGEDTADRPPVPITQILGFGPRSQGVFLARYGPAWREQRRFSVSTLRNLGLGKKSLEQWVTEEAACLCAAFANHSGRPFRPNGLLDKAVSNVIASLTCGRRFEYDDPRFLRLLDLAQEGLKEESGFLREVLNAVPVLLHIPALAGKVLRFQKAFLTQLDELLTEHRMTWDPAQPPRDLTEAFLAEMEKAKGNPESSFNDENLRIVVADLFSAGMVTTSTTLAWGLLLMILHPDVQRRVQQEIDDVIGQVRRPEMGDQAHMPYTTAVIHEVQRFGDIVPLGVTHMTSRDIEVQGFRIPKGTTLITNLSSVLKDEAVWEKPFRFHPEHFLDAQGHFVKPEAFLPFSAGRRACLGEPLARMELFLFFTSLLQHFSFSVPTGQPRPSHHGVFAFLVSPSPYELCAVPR

[10] = biological target: T2, Cytochrome P450 3A4 (Homo sapiens, UniProt P08684); assay: Inhibition of CYP3A4 in human liver microsomes using midazolam as substrate after 15 mins by LC/MS/MS analysis
T2 sequence (P08684 whole entry): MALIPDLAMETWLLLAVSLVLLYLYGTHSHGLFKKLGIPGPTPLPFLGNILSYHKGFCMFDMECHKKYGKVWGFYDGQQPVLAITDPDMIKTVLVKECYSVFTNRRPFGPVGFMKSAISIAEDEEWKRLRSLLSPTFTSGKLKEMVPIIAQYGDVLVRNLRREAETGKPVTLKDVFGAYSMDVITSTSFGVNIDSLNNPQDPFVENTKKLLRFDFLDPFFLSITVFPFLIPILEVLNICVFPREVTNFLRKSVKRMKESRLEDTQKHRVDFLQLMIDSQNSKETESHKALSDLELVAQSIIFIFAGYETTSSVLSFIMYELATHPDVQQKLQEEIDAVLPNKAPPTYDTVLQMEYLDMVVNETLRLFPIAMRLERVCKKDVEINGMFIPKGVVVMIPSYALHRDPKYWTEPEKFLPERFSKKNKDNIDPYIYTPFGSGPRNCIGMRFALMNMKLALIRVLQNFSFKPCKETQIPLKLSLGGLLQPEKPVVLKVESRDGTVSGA

[11] = biological target: T2, Cytochrome P450 3A4; assay: Inhibition of CYP3A4 in human liver microsomes using testosterone as substrate after 15 mins by LC/MS/MS analysis
[12] = test system: Staphylococcus epidermidis; assay: Antibacterial activity against methicillin-resistant Staphylococcus epidermidis after 16 hrs by agar dilution method; type: functional
[13] = Aqueous solubility of the compound in water at pH 7.4
[14] = Chemical stability of solid state of the compound assessed as compound remaining after 24 hrs by UV/HPLC analysis; type: physicochemical; conditions: read-out: Stability
[15] = Chemical stability of solid state of the compound assessed as compound remaining after 100 days by UV/HPLC analysis; type: physicochemical; conditions: read-out: Stability
[16] = Chemical stability of aqueous solution state of the compound assessed as compound remaining after 24 hrs by UV/HPLC analysis; type: physicochemical; conditions: read-out: Stability
[17] = Chemical stability of aqueous solution state of the compound assessed as compound remaining after 14 days by UV/HPLC analysis; type: physicochemical; conditions: read-out: Stability
[18] = Tmax in Sprague-Dawley rat at 10 mg/kg, iv; type: ADME, organism-based; set-up: dose 10 mg/kg, route intravenous; conditions: in vivo
[19] = AUC (0 to t) in Sprague-Dawley rat at 10 mg/kg, iv; type: ADME, organism-based; set-up: dose 10 mg/kg, route intravenous; conditions: plasma
[20] = Mean residence time in Sprague-Dawley rat at 10 mg/kg, iv; type: ADME, organism-based; set-up: dose 10 mg/kg, route intravenous; conditions: in vivo
[21] = Elimination half life in Sprague-Dawley rat at 10 mg/kg, iv; type: ADME, organism-based; set-up: dose 10 mg/kg, route intravenous; conditions: in vivo, read-out: beta t1/2 (converted)
[22] = Clearance in Sprague-Dawley rat at 10 mg/kg, iv; type: ADME, organism-based; set-up: dose 10 mg/kg, route intravenous; conditions: in vivo
[23] = Volume of distribution at steady state in Sprague-Dawley rat at 10 mg/kg, iv; type: ADME, organism-based; set-up: dose 10 mg/kg, route intravenous; conditions: in vivo, read-out: Vdss
[24] = test system: Staphylococcus aureus; assay: Antibacterial activity against clinical isolate of methicillin-sensitive Staphylococcus aureus infected in iv dosed mouse administered 1 hr after infection for 4 days; type: functional
[25] = test system: Staphylococcus aureus; assay: Antibacterial activity against clinical isolate of methicillin-sensitive Staphylococcus aureus infected in iv dosed mouse assessed as host survival administered 1 hr after infection for 4 days; type: functional
[26] = Plasma concentration in Sprague-Dawley rat at 10 mg/kg, iv after 15 mins; type: ADME, organism-based; set-up: dose 10 mg/kg, route intravenous
[27] = test system: Rattus norvegicus; assay: Tmax in Sprague-Dawley rat assessed as 14-O-(((5-hydroxymethylpyridin-3-yl)sulfanyl)acetyl)mutilin level at 10 mg/kg, iv; type: ADME, organism-based; set-up: dose 10 mg/kg, route intravenous; conditions: in vivo
[28] = AUC (0 to t) in Sprague-Dawley rat at 2 mg/kg, iv administered as cassette dosing; type: ADME, organism-based; set-up: dose 2 mg/kg, route intravenous; conditions: plasma
[29] = Mean residence time in Sprague-Dawley rat at 2 mg/kg, iv administered as cassette dosing; type: ADME, organism-based; set-up: dose 2 mg/kg, route intravenous; conditions: in vivo
[30] = Elimination half life in Sprague-Dawley rat at 2 mg/kg, iv administered as cassette dosing; type: ADME, organism-based; set-up: dose 2 mg/kg, route intravenous; conditions: in vivo, read-out: beta t1/2 (converted)
[31] = Clearance in Sprague-Dawley rat at 2 mg/kg, iv administered as cassette dosing; type: ADME, organism-based; set-up: dose 2 mg/kg, route intravenous; conditions: in vivo
[32] = Volume of distribution at steady state in Sprague-Dawley rat at 2 mg/kg, iv administered as cassette dosing; type: ADME, organism-based; set-up: dose 2 mg/kg, route intravenous; conditions: in vivo, read-out: Vdss
[33] = test system: Staphylococcus aureus; assay: Antibacterial activity against of methicillin-sensitive Staphylococcus aureus ATCC 19636 infected in iv dosed mouse administered 1 hr after infection measured after 48 hrs; type: functional
[34] = test system: Staphylococcus aureus; assay: Antibacterial activity against of methicillin-sensitive Staphylococcus aureus ATCC 19636 infected in iv dosed mouse assessed as host survival administered 1 hr after infection measured after 48 hrs; type: functional; conditions: ATCC 19636, iv

Row | Structure (SMILES) | MIC [1] [µg/mL] | MIC [2] [µg/mL] | MIC [3] [µg/mL] | MIC [4] [µg/mL] | MIC [5] [µg/mL] | IC50 [6] [µM] | IC50 [7] [µM] | IC50 [8] [µM] | IC50 [9] [µM] | IC50 [10] [µM] | IC50 [11] [µM] | MIC [12] [µg/mL] | AUC(0-t) [28] [ng·h/mL] | MRT [29] [min] | half-life [30] [min] | clearance [31] [mL/min/kg] | Vd [32] [L/kg] | further results
1 | C=C[C@]1(C)C[C@@H](OC(=O)CSc2cccc(CO)c2)[C@]2(C)[C@H](C)CC[C@]3(CCC(=O)[C@H]32)[C@@H](C)[C@@H]1O | 0.063 (≈ 0.126 µM) | 0.063 (≈ 0.126 µM) | 0.063 (≈ 0.126 µM) | 0.063 (≈ 0.126 µM) | 0.063 (≈ 0.126 µM) | > 25 | 11.1 | 15.4 | > 25 | 1.95 | 1.9 | 0.063 (≈ 0.126 µM) | – | – | – | – | – | –
2 | C=C[C@]1(C)C[C@@H](OC(=O)CSc2cncc(COP(=O)([O-])[O-])c2)[C@]2(C)[C@H](C)CC[C@]3(CCC(=O)[C@H]32)[C@@H](C)[C@@H]1O.[Na+].[Na+] | – | – | – | – | – | – | – | – | – | – | – | – | – | – | – | – | – | solubility ([13]; water): 106 mg/mL; remaining at 24 h [14]: 98.1%; remaining at 2400 h [15]: 98.1%; remaining at 24 h [16]: 98.1%; remaining at 336 h [17]: 98.1%; Tmax [18]: 4.8 min; AUC(0-t) [19]: 1580 ng·h/mL; MRT [20]: 39 min; half-life [21]: 382 min; clearance [22]: 83.3 mL/min/kg; Vd [23]: 3.26 L/kg; MIC [24]: > 32 µg/mL; ED50 [25]: 29.2 mg/kg; concentration at […] [26]: 3 ng/mL; Tmax [27]: < 5 min
3 | C=C[C@]1(C)C[C@@H](OC(=O)CSc2ccccn2)[C@]2(C)[C@H](C)CC[C@]3(CCC(=O)[C@H]32)[C@@H](C)[C@@H]1O | 0.063 (≈ 0.134 µM) | 0.031 (≈ 0.0657 µM) | 0.031 (≈ 0.0657 µM) | 0.031 (≈ 0.0657 µM) | 0.031 (≈ 0.0657 µM) | > 10 | > 10 | > 10 | > 10 | 1.25 | 1.36 | 0.031 (≈ 0.0657 µM) | – | – | – | – | – | –
4 | C=C[C@]1(C)C[C@@H](OC(=O)CS[C@@H]2CC[C@@H](N)C[C@H]2O)[C@]2(C)[C@H](C)CC[C@]3(CCC(=O)[C@H]32)[C@@H](C)[C@@H]1O [LEFAMULIN] | – | – | – | – | – | > 25 | > 25 | > 25 | > 25 | 4.65 | 4.43 | – | 275 | 228 | 264 | 122 | 27.6 | MIC [33]: 0.031 µg/mL (≈ 0.0611 µM); ED50 [34]: 3.08 mg/kg
5 | C=C[C@]1(C)C[C@@H](OC(=O)CSc2cncc(N)c2)[C@]2(C)[C@H](C)CC[C@]3(CCC(=O)[C@H]32)[C@@H](C)[C@@H]1O | 0.031 (≈ 0.0637 µM) | 0.063 (≈ 0.129 µM) | 0.031 (≈ 0.0637 µM) | 0.031 (≈ 0.0637 µM) | 0.063 (≈ 0.129 µM) | > 25 | > 25 | 15.5 | 17.1 | 0.135 | 0.0444 | 0.031 (≈ 0.0637 µM) | – | – | – | – | – | solubility ([13]; buffer): Insoluble
6 | C=C[C@]1(C)C[C@@H](OC(=O)CSc2cncc(NC(=O)[C@@H](N)CC(C)C)c2)[C@]2(C)[C@H](C)CC[C@]3(CCC(=O)[C@H]32)[C@@H](C)[C@@H]1O | 0.031 (≈ 0.0517 µM) | 0.063 (≈ 0.105 µM) | 0.063 (≈ 0.105 µM) | 0.063 (≈ 0.105 µM) | 0.063 (≈ 0.105 µM) | – | – | – | – | – | – | 0.063 (≈ 0.105 µM) | 69 | 21 | 37.8 | 488 | 10.3 | –
